Data taken from US7470686B2, “Method of inhibiting the expression and/or the activity of JNK” (Laboratoires Serono SA, priority 1999, dated 2008).
Counter-ions that a name gives are not always drawn.

Experiments:
[1] = biological target: recombinant, pre-activated GST-JNK3 (Homo sapiens, UniProt P53779); test: JNK3 enzyme assay (SPA, GST-c-Jun phosphorylation); format: biochemical; conditions: 2 μM ATP, 120 min at R.T
Protocol: (§1) JNK2 and 3 enzyme assay: […] The incubation is performed for 120 min. at R.T and stopped upon addition of 200 μl of a solution containing 250 μg of Streptavidine-coated SPA beads (Amersham, Inc.)*, 5 mM EDTA, 0.1% Triton X-100 and 50 μM ATP, in phosphate saline buffer. After incubation for 60 minutes at RT, beads are sedimented by centrifugation at 1500×g for 5 minutes, resuspended in 200 μl of PBS containing 5 mM EDTA, 0.1% Triton X-100 and 50 μM ATP and the radioactivity measured in a scintillation β counter, following sedimentation of the beads as described above. By substituting GST-c Jun for biotinylated GST-1ATF2 or myelin basic protein, this assay can be used to measure inhibition of preactivated p38 and ERK MAP Kinases, respectively.

[2] = biological target: recombinant, pre-activated GST-JNK2 (Homo sapiens, UniProt P45984); test: JNK2 enzyme assay (SPA, GST-c-Jun phosphorylation); format: biochemical; conditions: 2 μM ATP, 120 min at R.T
Chain of recombinant, pre-activated GST-JNK2 (P45984 whole entry): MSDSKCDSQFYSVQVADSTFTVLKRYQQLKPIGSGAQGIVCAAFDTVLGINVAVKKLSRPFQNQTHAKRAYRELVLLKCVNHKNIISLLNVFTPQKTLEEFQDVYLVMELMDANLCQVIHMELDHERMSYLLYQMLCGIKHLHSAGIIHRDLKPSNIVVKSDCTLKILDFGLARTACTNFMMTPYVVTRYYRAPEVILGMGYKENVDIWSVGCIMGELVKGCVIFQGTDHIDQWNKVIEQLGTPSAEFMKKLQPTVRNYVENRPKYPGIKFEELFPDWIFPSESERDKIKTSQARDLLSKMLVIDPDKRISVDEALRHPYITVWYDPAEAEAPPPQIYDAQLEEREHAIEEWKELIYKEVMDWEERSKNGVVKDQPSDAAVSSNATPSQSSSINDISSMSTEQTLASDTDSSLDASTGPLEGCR
Protocol: as §1

ERK2 = ERK2 (Homo sapiens, UniProt P28482); test: ERK2 enzyme assay (SPA, myelin basic protein substrate); format: biochemical
Chain of ERK2 (P28482 whole entry, species assumed): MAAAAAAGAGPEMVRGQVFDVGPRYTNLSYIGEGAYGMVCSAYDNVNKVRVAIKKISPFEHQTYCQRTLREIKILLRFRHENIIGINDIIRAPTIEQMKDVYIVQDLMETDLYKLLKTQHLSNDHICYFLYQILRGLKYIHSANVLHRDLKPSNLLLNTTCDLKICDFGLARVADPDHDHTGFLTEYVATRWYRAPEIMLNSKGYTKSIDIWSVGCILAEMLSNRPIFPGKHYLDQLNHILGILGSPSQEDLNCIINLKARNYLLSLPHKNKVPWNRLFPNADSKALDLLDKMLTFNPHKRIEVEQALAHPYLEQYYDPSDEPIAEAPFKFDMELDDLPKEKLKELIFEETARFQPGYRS
Protocol: as §1

preactivated p38 = preactivated p38 (Homo sapiens, UniProt Q16539); test: p38 enzyme assay (SPA, GST-ATF2 substrate); format: biochemical
Chain of preactivated p38 (Q16539 whole entry): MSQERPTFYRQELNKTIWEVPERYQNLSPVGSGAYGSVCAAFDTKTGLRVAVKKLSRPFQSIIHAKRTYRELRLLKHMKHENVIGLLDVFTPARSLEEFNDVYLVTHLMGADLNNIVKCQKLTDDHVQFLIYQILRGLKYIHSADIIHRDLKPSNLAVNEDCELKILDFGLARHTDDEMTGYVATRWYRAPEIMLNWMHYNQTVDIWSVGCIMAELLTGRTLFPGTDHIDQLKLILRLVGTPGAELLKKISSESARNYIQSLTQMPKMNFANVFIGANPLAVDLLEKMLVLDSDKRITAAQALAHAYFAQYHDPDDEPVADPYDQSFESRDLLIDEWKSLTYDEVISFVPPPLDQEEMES
Protocol: The incubation is performed for 120 min. at R.T and stopped upon addition of 200 μl of a solution containing 250 μg of Streptavidine-coated SPA beads (Amersham, Inc.)*, 5 mM EDTA, 0.1% Triton X-100 and 50 μM ATP, in phosphate saline buffer. After incubation for 60 minutes at RT, beads are sedimented by centrifugation at 1500×g for 5 minutes, resuspended in 200 μl of PBS containing 5 mM EDTA, 0.1% Triton X-100 and 50 μM ATP and the radioactivity measured in a scintillation β counter, following sedimentation of the beads as described above. By substituting GST-c Jun for biotinylated GST-1ATF2 or myelin basic protein, this assay can be used to measure inhibition of preactivated p38 and ERK MAP Kinases, respectively.

[3] = test system: JNK (Hlr c-Jun HeLa cells); test: C-Jun reporter assay; format: cell-based; conditions: Homo sapiens, MEKK1-transfected Hlr c-Jun HeLa cells, luciferase reporter
Protocol: Hlr c-Jun HeLa cells are cultured in DMEM High Glc supplemented with 10% FCS (Sigma), 2 mM Glutamine (Gibco), P/S, Hygromycin b 100 µg/mL and G418 250 μg/mL
The cells from flasks of near-confluent cultures are detached and disaggregated by treatment with trypsin as described above. The cells are resuspended in culture medium and counted. The cell suspension are diluted with medium to give about 3.5×10^6 cells/mL and […] of cell suspension are put onto 2 10 cm culture dishes containing 9 mL of culture medium. The plates are incubated at 37° C. in a humidified atmosphere of 5% CO2 in air
• Control 0.2 μg pTK Renilla, 5.8 μg pBluescript KS, 500 μl OPTIMEM (GIBCO), 18 μl Fugene 6 • Induced 0.1 μg pMEKK1, 0.2 μg pTK Renilla, 5.7 μg pBluescript KS, 500 μl OPTIMEM (GIBCO), 18 μl Fugene 6 30′ RT
The transfection mixture is added to the plated cells. The plates are incubated over night at 37° C. in a humidified atmosphere of 5% CO2 in air
A 96 wells plate containing 100 μl of culture medium per well is prepared
Compound: 2 μl of Hit compound stock dilution are added to the 100 μl (in triplicate). The transfected cells are trypsinised and re-suspend in 12 mL of culture medium. 100 μl of the dilution are added to each of the 96 wells plate. The plate is incubated over night at 37° C. in a humidified atmosphere of 5% CO2 in air
The medium is removed from the plate and the cells washed two times with 100 μl PBS Completely remove the rinse solution before applying PLB reagent. Dispense into each culture well […] of 1×PLB. Place the culture plates on a rocking platform or orbital shaker with gentle rocking/shaking to ensure complete and even coverage of the cell monolayer with 1×PLB. Rock the culture plates at room temperature for 15 minutes. Transfer 20 μl of the lysate into a white opaque 96 wells plate. Read in a luminometer. • Inject 50 μl of Luciferase Assay Reagent II wait 5″, read 10″ • Inject 50 μl of Stop & Glo® Reagent wait 5″, read 10″ Check RLU Luciferase/RLU Renilla*1000

Chain of recombinant, pre-activated GST-JNK3 (P53779 whole entry): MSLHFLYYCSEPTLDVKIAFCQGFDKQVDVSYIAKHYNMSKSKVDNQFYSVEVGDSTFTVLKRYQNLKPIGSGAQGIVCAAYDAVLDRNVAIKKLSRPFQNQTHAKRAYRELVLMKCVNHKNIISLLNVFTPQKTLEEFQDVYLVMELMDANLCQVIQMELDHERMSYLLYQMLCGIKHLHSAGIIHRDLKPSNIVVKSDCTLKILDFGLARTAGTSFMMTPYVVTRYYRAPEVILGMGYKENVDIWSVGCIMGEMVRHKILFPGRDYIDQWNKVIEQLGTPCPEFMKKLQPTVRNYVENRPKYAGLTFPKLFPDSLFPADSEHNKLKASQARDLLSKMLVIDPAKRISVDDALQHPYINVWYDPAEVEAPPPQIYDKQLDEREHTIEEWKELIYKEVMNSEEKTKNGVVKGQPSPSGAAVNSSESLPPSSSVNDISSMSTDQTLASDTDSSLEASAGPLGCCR

melting point	IC50 [1]	IC50 [2]	IC50 (ERK2)	Compound	further results
204 to 205 °C	–	–	–	CN(C)CCCNc1nccc(C(C#N)c2nc3ccccc3s2)n1 (stereo not drawn) (as salt: TFA) [Compound 47, 1,3-benzothiazol-2-yl(2-{[3-(dimethylamino)propyl]amino}pyrimidin-4-yl)acetonitrile]	–
228 to 230 °C	–	–	–	N#CC(c1ccnc(NCCN2CCCCC2)n1)c1nc2ccccc2s1 (stereo not drawn) (as salt: TFA) [Compound 48, 1,3-benzothiazol-2-yl {2-[(2-piperidin-1-ylethyl)amino]pyrimidin-4-yl}acetonitrile]	–
219 to 220 °C	–	–	–	Cn1cncc1CCNc1nccc(C(C#N)c2nc3ccccc3s2)n1 (stereo not drawn) (as salt: TFA) [Compound 49, 1,3-benzothiazol-2-yl(2-{[2-(1-methyl-1H-imidazol-5-yl)ethyl]amino}pyrimidin-4-yl)acetonitrile]	–
258 to 261 °C	–	–	–	N#CC(c1ccnc(NCCc2ccc(O)cc2)n1)c1nc2ccccc2s1 (stereo not drawn) [Compound 43, 1,3-benzothiazol-2-yl(2-{[2-(4-hydroxyphenyl)ethyl]amino}pyrimidin-4-yl)acetonitrile]	–
–	60 nM	250 nM	> 30000 nM	N#CC(c1ccnc(OCc2ccccc2)n1)c1nc2ccccc2s1 (stereo not drawn) [Compound 80, 1,3-benzothiazol-2-yl[2-(benzyloxy)pyrimidin-4-yl]acetonitrile]	IC50 (preactivated p38): > 30000 nM
–	30 nM	300 nM	> 30000 nM	COc1ccc(Oc2nccc(C(C#N)c3nc4ccccc4s3)n2)cc1 (stereo not drawn) [Compound 96, 1,3-benzothiazol-2-yl[2-(4-methoxyphenoxy)pyrimidin-4-yl]acetonitrile]	IC50 (preactivated p38): > 30000 nM
–	105 nM	450 nM	> 30000 nM	COc1nccc(C(C#N)c2nc3ccccc3s2)n1 (stereo not drawn) [Compound 102, 1,3-benzothiazol-2-yl(2-methoxy-4-pyrimidinyl)-acetonitrile]	–

More lines, now with the values behind:

Compound	melting point	IC50 [1]	IC50 [2]	IC50 (ERK2)	further results
N#CC(c1ccnc(NCCc2ccccn2)n1)c1nc2ccccc2s1 (stereo not drawn) (as salt: TFA) [Compound 28, 1,3-benzothiazol-2-yl(2-{[2-(2-pyridinyl)ethyl]amino}-4-pyrimidinyl)acetonitrile]	247 °C (dec.)	–	–	–	–
N#CC(c1ccnc(NCc2ccccn2)n1)c1nc2ccccc2s1 (stereo not drawn) (as salt: TFA) [Compound 29, 1,3-benzothiazol-2-yl{2-[(2-pyridinylmethyl)amino]-4-pyrimidinyl}acetonitrile]	250 °C (dec.)	–	–	–	–
N#CC(c1ccnc(Cl)n1)c1nc2ccccc2s1 (stereo not drawn) [Compound 1, 1,3-benzothiazol-2-yl(2-chloro-4-pyrimidinyl)-acetonitrile]	–	290 nM	500 nM	> 30000 nM	–
CSc1nccc(C(C#N)c2nc3ccccc3s2)n1 (stereo not drawn) [Compound 4, 1,3-benzothiazol-2-yl[2-(methylsulfanyl)-4-pyrimidinyl]acetonitrile]	–	350 nM	970 nM	> 30000 nM	–
N#CC(c1ccnc(NCCc2c[nH]cn2)n1)c1nc2ccccc2s1 (stereo not drawn) [Compound 10, 1,3-benzothiazol-2-yl(2-{[2-(1H-imidazol-4-yl)ethyl]amino}-4-pyrimidinyl)acetonitrile]	–	70 nM	210 nM	> 30000 nM	IC50 (preactivated p38): > 30000 nM
CNc1nccc(C(C#N)c2nc3ccccc3s2)n1 (stereo not drawn) [Compound 15, 1,3-benzothiazol-2-yl[2-(methylamino)-4-pyrimidinyl]acetonitrile]	–	950 nM	2300 nM	> 30000 nM	–
N#CC(c1ccnc(NCCO)n1)c1nc2ccccc2s1 (stereo not drawn) [Compound 23, 1,3-benzothiazol-2-yl {2-[(2-hydroxyethyl)amino]-4-pyrimidinyl}acetonitrile]	–	510 nM	1800 nM	> 30000 nM	IC50 (preactivated p38): > 30000 nM
N#CC(c1ccnc(N2CCCC2)n1)c1nc2ccccc2s1 (stereo not drawn) [Compound 26, 1,3-benzothiazol-2-yl[2-(1-pyrrolidinyl)-4-pyrimidinyl]acetonitrile]	270 to 272 °C	–	–	–	–
N#CC(c1ccnc(NCCc2ccccc2)n1)c1nc2ccccc2s1 (stereo not drawn) [Compound 27, 1,3-benzothiazol-2-yl {2-[(2-phenylethyl)amino]-4-pyrimidinyl}acetonitrile]	256 °C (dec.)	–	–	–	–
N#CC(c1ccnc(NCCc2cccnc2)n1)c1nc2ccccc2s1 (stereo not drawn) [Compound 33, 1,3-benzothiazol-2-yl(2-{[2-(3-pyridinyl)ethyl]amino}-4-pyrimidinyl)acetonitrile]	–	–	–	–	inhibition at 10 µM [3]: > 50%
N#CC(c1ccnc(OCc2ccc(CN3CCOCC3)cc2)n1)c1nc2ccccc2s1 (stereo not drawn) [Compound 93, 1,3-benzothiazol-2-yl(2-{[4-(morpholin-4-ylmethyl)benzyl]oxy}pyrimidin-4-yl)acetonitrile]	–	–	–	–	inhibition at 10 µM [3]: > 50%
N#CC(c1ccnc(OCc2ccc(CN3CCCCC3)cc2)n1)c1nc2ccccc2s1 (stereo not drawn) [Compound 95, 1,3-benzothiazol-2-yl(2-{[4-(piperidin-1-ylmethyl)benzyl]oxy}pyrimidin-4-yl)acetonitrile]	–	–	–	–	inhibition at 10 µM [3]: > 50%
